Numbers after ± are expanded uncertainties.
Key:
[1] = excess molar enthalpy (molar enthalpy of mixing); xn = mol fraction of the nth substance listed; conditions: 101 kPa, Liquid
[2] = xn = mol fraction of the nth substance listed; conditions: 101 kPa, Liquid, Vibrating tube method

OCC(F)(F)F [2,2,2-trifluoroethanol] + CCCCn1cc[n+](C)c1.F[B-](F)(F)F
excess molar enthalpy ([1]; 298.15 K, x2 = 0.0878): 0.174 ± 0.00669 kcal/mol | excess molar enthalpy ([1]; 298.15 K, x2 = 0.1614): 0.279 ± 0.0103 kcal/mol | excess molar enthalpy ([1]; 298.15 K, x2 = 0.2042): 0.305 ± 0.0112 kcal/mol | excess molar enthalpy ([1]; 298.15 K, x2 = 0.2779): 0.318 ± 0.0117 kcal/mol | excess molar enthalpy ([1]; 298.15 K, x2 = 0.3392): 0.302 ± 0.011 kcal/mol | excess molar enthalpy ([1]; 298.15 K, x2 = 0.3908): 0.289 ± 0.0105 kcal/mol | excess molar enthalpy ([1]; 298.15 K, x2 = 0.435): 0.273 ± 0.01 kcal/mol | excess molar enthalpy ([1]; 298.15 K, x2 = 0.5065): 0.238 ± 0.00884 kcal/mol | excess molar enthalpy ([1]; 298.15 K, x2 = 0.6581): 0.162 ± 0.00621 kcal/mol | excess molar enthalpy ([1]; 298.15 K, x2 = 0.6919): 0.145 ± 0.0055 kcal/mol | excess molar enthalpy ([1]; 298.15 K, x2 = 0.7549): 0.119 ± 0.00478 kcal/mol | excess molar enthalpy ([1]; 298.15 K, x2 = 0.8089): 0.0909 ± 0.00382 kcal/mol | excess molar enthalpy ([1]; 298.15 K, x2 = 0.9059): 0.0403 ± 0.00201 kcal/mol | excess molar enthalpy ([1]; 323.15 K, x2 = 0.0459): 0.0433 ± 0.0022 kcal/mol | excess molar enthalpy ([1]; 323.15 K, x2 = 0.1137): 0.113 ± 0.00454 kcal/mol | excess molar enthalpy ([1]; 323.15 K, x2 = 0.2042): 0.168 ± 0.00645 kcal/mol | excess molar enthalpy ([1]; 323.15 K, x2 = 0.2779): 0.179 ± 0.00693 kcal/mol | excess molar enthalpy ([1]; 323.15 K, x2 = 0.3461): 0.173 ± 0.00669 kcal/mol | excess molar enthalpy ([1]; 323.15 K, x2 = 0.435): 0.154 ± 0.00598 kcal/mol | excess molar enthalpy ([1]; 323.15 K, x2 = 0.5359): 0.128 ± 0.00502 kcal/mol | excess molar enthalpy ([1]; 323.15 K, x2 = 0.6062): 0.108 ± 0.0043 kcal/mol | excess molar enthalpy ([1]; 323.15 K, x2 = 0.6978): 0.079 ± 0.00335 kcal/mol | excess molar enthalpy ([1]; 323.15 K, x2 = 0.822): 0.0433 ± 0.00213 kcal/mol | excess molar enthalpy ([1]; 323.15 K, x2 = 0.885): 0.0286 ± 0.00163 kcal/mol | mass density ([2]; 283.15 K, x2 = 0): 1408.2 ± 0.8 kg/m3 | mass density ([2]; 283.15 K, x2 = 0.1032): 1360.8 ± 0.8 kg/m3 | mass density ([2]; 283.15 K, x2 = 0.2129): 1322.2 ± 0.9 kg/m3 | mass density ([2]; 283.15 K, x2 = 0.299): 1299.8 ± 0.9 kg/m3 | mass density ([2]; 283.15 K, x2 = 0.4022): 1279.1 ± 1 kg/m3 | mass density ([2]; 283.15 K, x2 = 0.5028): 1262.9 ± 1.2 kg/m3 | mass density ([2]; 283.15 K, x2 = 0.5808): 1252.3 ± 1.3 kg/m3 | mass density ([2]; 283.15 K, x2 = 0.6912): 1239.6 ± 1.6 kg/m3 | mass density ([2]; 283.15 K, x2 = 0.8062): 1228.5 ± 1.9 kg/m3 | mass density ([2]; 283.15 K, x2 = 0.8945): 1221.2 ± 2.3 kg/m3 | mass density ([2]; 293.15 K, x2 = 0): 1391.1 ± 0.8 kg/m3 | mass density ([2]; 293.15 K, x2 = 0.1032): 1346.9 ± 0.8 kg/m3 | mass density ([2]; 293.15 K, x2 = 0.2129): 1310.1 ± 0.9 kg/m3 | mass density ([2]; 293.15 K, x2 = 0.299): 1288.8 ± 0.9 kg/m3 | mass density ([2]; 293.15 K, x2 = 0.4022): 1269 ± 1 kg/m3 | mass density ([2]; 293.15 K, x2 = 0.5028): 1253.4 ± 1.1 kg/m3 | mass density ([2]; 293.15 K, x2 = 0.5808): 1243.3 ± 1.3 kg/m3 | mass density ([2]; 293.15 K, x2 = 0.6912): 1231.2 ± 1.6 kg/m3 | mass density ([2]; 293.15 K, x2 = 0.8062): 1220.5 ± 1.9 kg/m3 | mass density ([2]; 293.15 K, x2 = 0.8945): 1213.3 ± 2.3 kg/m3 | mass density ([2]; 303.15 K, x2 = 0): 1373.8 ± 0.8 kg/m3 | mass density ([2]; 303.15 K, x2 = 0.1032): 1332.9 ± 0.8 kg/m3 | mass density ([2]; 303.15 K, x2 = 0.2129): 1298.1 ± 0.9 kg/m3 | mass density ([2]; 303.15 K, x2 = 0.299): 1277.9 ± 0.9 kg/m3 | mass density ([2]; 303.15 K, x2 = 0.4022): 1259.1 ± 1 kg/m3 | mass density ([2]; 303.15 K, x2 = 0.5028): 1244.3 ± 1.1 kg/m3 | mass density ([2]; 303.15 K, x2 = 0.5808): 1234.6 ± 1.3 kg/m3 | mass density ([2]; 303.15 K, x2 = 0.6912): 1223.1 ± 1.6 kg/m3 | mass density ([2]; 303.15 K, x2 = 0.8062): 1212.8 ± 1.9 kg/m3 | mass density ([2]; 303.15 K, x2 = 0.8945): 1205.8 ± 2.3 kg/m3 | mass density ([2]; 313.15 K, x2 = 0): 1356.1 ± 0.8 kg/m3 | mass density ([2]; 313.15 K, x2 = 0.1032): 1319 ± 0.8 kg/m3 | mass density ([2]; 313.15 K, x2 = 0.2129): 1286.1 ± 0.9 kg/m3 | mass density ([2]; 313.15 K, x2 = 0.299): 1267 ± 0.9 kg/m3 | mass density ([2]; 313.15 K, x2 = 0.4022): 1249.4 ± 1 kg/m3 | mass density ([2]; 313.15 K, x2 = 0.5028): 1235.2 ± 1.1 kg/m3 | mass density ([2]; 313.15 K, x2 = 0.5808): 1226 ± 1.3 kg/m3 | mass density ([2]; 313.15 K, x2 = 0.6912): 1215 ± 1.5 kg/m3 | mass density ([2]; 313.15 K, x2 = 0.8062): 1205.1 ± 1.9 kg/m3 | mass density ([2]; 313.15 K, x2 = 0.8945): 1198.3 ± 2.2 kg/m3 | mass density ([2]; 323.15 K, x2 = 0): 1338 ± 0.8 kg/m3 | mass density ([2]; 323.15 K, x2 = 0.1032): 1304.9 ± 0.8 kg/m3 | mass density ([2]; 323.15 K, x2 = 0.2129): 1274.3 ± 0.8 kg/m3 | mass density ([2]; 323.15 K, x2 = 0.299): 1256.4 ± 0.9 kg/m3 | mass density ([2]; 323.15 K, x2 = 0.4022): 1239.7 ± 1 kg/m3 | mass density ([2]; 323.15 K, x2 = 0.5028): 1226.4 ± 1.1 kg/m3 | mass density ([2]; 323.15 K, x2 = 0.5808): 1217.5 ± 1.3 kg/m3 | mass density ([2]; 323.15 K, x2 = 0.6912): 1207 ± 1.5 kg/m3 | mass density ([2]; 323.15 K, x2 = 0.8062): 1197.6 ± 1.9 kg/m3 | mass density ([2]; 323.15 K, x2 = 0.8945): 1190.9 ± 2.2 kg/m3 | mass density ([2]; 333.15 K, x2 = 0): 1319.1 ± 0.8 kg/m3 | mass density ([2]; 333.15 K, x2 = 0.1032): 1290.6 ± 0.8 kg/m3 | mass density ([2]; 333.15 K, x2 = 0.2129): 1262.4 ± 0.8 kg/m3 | mass density ([2]; 333.15 K, x2 = 0.299): 1245.8 ± 0.9 kg/m3 | mass density ([2]; 333.15 K, x2 = 0.4022): 1230 ± 1 kg/m3 | mass density ([2]; 333.15 K, x2 = 0.5028): 1217.4 ± 1.1 kg/m3 | mass density ([2]; 333.15 K, x2 = 0.5808): 1209 ± 1.2 kg/m3 | mass density ([2]; 333.15 K, x2 = 0.6912): 1199.1 ± 1.5 kg/m3 | mass density ([2]; 333.15 K, x2 = 0.8062): 1190.1 ± 1.8 kg/m3 | mass density ([2]; 333.15 K, x2 = 0.8945): 1183.6 ± 2.2 kg/m3
